Test system: gene expression in etiolated eto1-4 seedlings
Experiment: Transcriptional profiling (ATH1 GeneChip microarray) of etiolated eto1-4 seedlings
Type: in vivo, Arabidopsis thaliana
Settings: ratio eto1-4 treated to eto1-4 (no treatment)
Method: For chemical treatments, seeds were sown on 0.5×MS agar medium supplemented with 10 μM chemicals (AVG, compounds 9393, 9370, and 7303) or DMSO (as control). Arabidopsis seeds were stratified in the dark at 4° C. for 4 days, then germinated in the dark for 3 days at 22° C. Approximately 2,000 etiolated seedlings of the wild type or eto1-4 were used to collect tissues for preparation of total RNA in each microarray experiment with Arabidopsis ATH1 GeneChip (Affymetrix). Extraction of RNA followed an established protocol (Chang, et al. (1993) Plant Mol. Biol. Rep. 11, 113-117). Total RNA (10 μg) was used to prepare biotinylated cRNA for hybridization to ATH1 GeneChip in the experiments disclosed herein. Experiments were repeated by 2 independent biological duplicates, and candidate genes present in both experiments were selected for further analysis. The MASS method was used for data analysis and normalization by all sample medium. Candidate genes were selected by the following criteria. First, genes with 1.5-fold differential expression between the wild type and eto1-4 were selected as the master gene pool, which was then used for comparison in treatments with AVG and individual exemplary compounds. Data were presented in hierarchical clustering and Venn diagram format. Agilent GeneSpring GX and Bioconductor software were used to analyze the expression profile data. Gene Ontology descriptions were generated by GeneSpring GX and further referred to the TAR GO database. Raw data are available in the GEO database (http://www.ncbi.nlm.nih.gov/geo) with Accession no. GSE20897.
The filtered and normalized expression data set from 22810 probes on the ATH1 Genechip was used for hierarchical clustering of gene expression profiles for comparison between AVG and the exemplary invention compounds in eto1-4. It was identified that 1,446 genes show at least 1.5-fold difference in expression between the WT and eto1-4 and used them as the master gene pool for clustering analysis (FIG. 7A). […] These genes likely contribute to the etiolated phenotype of eto1-4 by responding to elevated endogenous ethylene. To determine whether the exemplary compounds have specific r overlapping functions with AVG to suppress the eto1-4 phenotype, genes that are regulated by individual exemplary invention compounds and AVG for Venn diagram analysis were clustered (FIG. 7B). More than 63% of genes (356/561 for compound 9393; 389/561 for compound 9370; 399/561 for compound 7303; FIG. 7B) with expression associated with AVG were co-regulated by the exemplary invention compounds, which indicates an overlap function in suppression of the ethylene phenotype in eto1-4. […] Next genes co-regulated by all of the exemplary invention compounds and AVG were examined by performing a clustering analysis using the co-regulated genes identified in FIG. 7B: 356 (compound 9393 vs AVG), 389 (compound 9370 vs AVG) and 399 genes (compound 7303 vs AVG). It was uncovered that 276 genes were co-regulated by all of the exemplary invention compounds and AVG (FIG. 7C and Table 2). On the basis of GO descriptions generated by Gene Spring GX and TAIR database, the 276 genes were divided into subgroups related to their biological functions (Table 2). […] In addition, stress- and pathogenesis-related genes were among the co-regulated genes, possibly because ethylene is involved in both biotic and abiotic stresses.
Genes (1446 non-redundant loci) were selected by 1.5-fold differential expression between eto1-4 and WT as the master pool for analysis. These genes were used for comparison between chemical treatments by AVG and the exemplary invention compounds. The finalized 276 genes that are co-regulated by AVG and all of the exemplary invention compounds are shown. Locus ID also present in Nemhauser et al. (Nemhauser, et al. (2006) Cell 126, 467-475).

SMILES: COc1ccc(C2CC(=O)c3cnc(Nc4ccccc4)nc3C2)cc1 (centres unmarked) [Compound 7303]
- Signal Fold Change AT3G14850, unknown biological function: 0.13
- Signal Fold Change AT3G15890 protein kinase: 2.14
- Signal Fold Change AT3G16450 jacalin lectin protein: 3.13
- Signal Fold Change AT3G16470 jacalin lectin protein: 6.91
- Signal Fold Change AT3G16690, unknown biological function: 4.80
- Signal Fold Change AT3G17680, unknown biological function: 0.17
- Signal Fold Change AT3G20130 cytochrome P450: 1.89
- Signal Fold Change AT3G21770 peroxidase 30: 1.84
- Signal Fold Change AT3G22620 lipid transfer protein: 2.70
- Signal Fold Change AT3G23150 ethylene receptor, putative (ETR2): 0.18
- Signal Fold Change AT3G23800, unknown biological function: 0.33
- Signal Fold Change AT3G24670, unknown biological function: 0.38
- Signal Fold Change AT3G25710 bHLH protein: 2.51
- Signal Fold Change AT3G25730 AP2-containing transcription factor: 0.21
- Signal Fold Change AT3G25980 mitotic spindle checkpoint protein: 2.49
- Signal Fold Change AT3G27580 protein kinase: 0.46
- Signal Fold Change AT3G28290, unknown biological function: 0.27
- Signal Fold Change AT3G29250 short-chain dehydrogenase: 20.57
- Signal Fold Change AT3G30775 proline oxidase, mitochondrial: 4.43
- Signal Fold Change AT3G43270 pectinesterase protein: 0.33
- Signal Fold Change AT3G44820, response to light stimulus, phototropic-responsive NPH3 protein: 2.99
- Signal Fold Change AT3G44990 endo-xyloglucan transferase: 0.21
- Signal Fold Change AT3G45710 proton-dependent oligopeptide transport (POT) protein: 4.30
- Signal Fold Change AT3G46130 myb transcription factor (MYB48): 2.20
- Signal Fold Change AT3G46700 UDP-glucosyl transferase: 7.33
- Signal Fold Change AT3G47210, unknown biological function: 3.50
- Signal Fold Change AT3G47250, unknown biological function: 5.15
- Signal Fold Change AT3G49780 phytosulfokines 3 (PSK3): 9.23
- Signal Fold Change AT3G50660 steroid 22-alpha-hydroxylase: 4.40
- Signal Fold Change AT3G51410, unknown biological function: 0.21
- Signal Fold Change AT3G51970, unknown biological function: 3.02
- Signal Fold Change AT3G52180 protein tyrosine phosphatase: 0.22
- Signal Fold Change AT3G52920 expressed protein (defense response): 3.88
- Signal Fold Change AT3G53540, unknown biological function: 0.41
- Signal Fold Change AT3G56480, unknown biological function: 2.86
- Signal Fold Change AT3G58710 WRKY transcription factor: 2.61
- Signal Fold Change AT3G59370, unknown biological function: 3.33
- Signal Fold Change AT3G59710 short-chain dehydrogenase: 0.48
- Signal Fold Change AT3G59900, unknown biological function: 0.39
- Signal Fold Change AT3G60520, unknown biological function: 0.30
- Signal Fold Change AT3G61160 shaggy-related protein kinase beta/ASK-beta (ASK2): 5.02
- Signal Fold Change AT4G00730 anthocyaninless2: 0.54
- Signal Fold Change AT4G01410, unknown biological function: 0.54
- Signal Fold Change AT4G03140 short-chain dehydrogenase: 0.23
- Signal Fold Change AT4G08300, unknown biological function: 4.13
- Signal Fold Change AT4G09570 calcium-dependent protein kinase: 0.34
- Signal Fold Change AT4G10910, unknown biological function: 4.49
- Signal Fold Change AT4G11190 disease resistance-responsive protein: 9.71
- Signal Fold Change AT4G11280 ACC synthase 6: 2.00
- Signal Fold Change AT4G11310 cysteine proteinase: 17.92
- Signal Fold Change AT4G12080, unknown biological function: 2.09
- Signal Fold Change AT4G12410 auxin-responsive protein: 3.30
- Signal Fold Change AT4G12480 lipid transfer protein: 0.06
- Signal Fold Change AT4G13210, unknown biological function: 0.27
- Signal Fold Change AT4G15550 UDP-glucose:indole-3-acetate beta-D-glucosyltransferase: 0.39
- Signal Fold Change AT4G15920, unknown biological function: 23.20
- Signal Fold Change AT4G17220 expressed protein (cytoskeleton organization and biogenesis): 2.48
- Signal Fold Change AT4G18340 glycosyl hydrolase: 3.43
- Signal Fold Change AT4G23410 senescence-associated protein: 1.83
- Signal Fold Change AT4G25780, unknown biological function: 9.00
- Signal Fold Change AT4G26010 peroxidase: 0.49
- Signal Fold Change AT4G28085, unknown biological function: 3.16
- Signal Fold Change AT4G31000, unknown biological function: 0.51
- Signal Fold Change AT4G32920, unknown biological function: 2.81
- Signal Fold Change AT4G34560, unknown biological function: 2.51
- Signal Fold Change AT4G34760 auxin-responsive protein: 0.22
- Signal Fold Change AT4G35060 copper chaperone: 3.90
- Signal Fold Change AT4G35150, unknown biological function: 0.31
- Signal Fold Change AT4G36520, unknown biological function: 2.99
- Signal Fold Change AT4G37220 stress-responsive protein: 15.33
- Signal Fold Change AT4G38690, signal transduction, 1-phosphatidylinositol: 3.39
- Signal Fold Change AT4G39210 ADP-glucose pyrophosphorylase: 0.34
- Signal Fold Change AT4G39800 inositol-3-phosphate synthase isozyme 1: 2.69
- Signal Fold Change AT4G39840, unknown biological function: 0.36
- Signal Fold Change AT5G01210, unknown biological function: 0.37
- Signal Fold Change AT5G01300, unknown biological function: 2.28
- Signal Fold Change AT5G02260, cell wall organization and biogenesis, expansin (EXP9): 0.23
- Signal Fold Change AT5G02540 short-chain dehydrogenase: 0.33
- Signal Fold Change AT5G03160 DNAJ heat shock N-terminal domain-containing protein: 2.24
- Signal Fold Change AT5G04080, unknown biological function: 3.07
- Signal Fold Change AT5G05180, unknown biological function: 1.98
- Signal Fold Change AT5G06200, unknown biological function: 1.99
- Signal Fold Change AT5G08240, unknown biological function: 2.56
- Signal Fold Change AT5G08260 serine carboxypeptidase S10 protein: 0.35
- Signal Fold Change AT5G08370 alpha-galactosidase: 3.99
- Signal Fold Change AT5G09980 expressed protein (defense response): 0.28
- Signal Fold Change AT5G10720 sensory transduction histidine kinase: 0.36
- Signal Fold Change AT5G11540, unknown biological function: 6.69
- Signal Fold Change AT5G12170, response to cadmium ion, expressed protein: 0.34
- Signal Fold Change AT5G13870 endo-xyloglucan transferase: 0.19
- Signal Fold Change AT5G13910 AP2/EREBP-like transcription factor: 0.40
- Signal Fold Change AT5G14780 formate dehydrogenase: 0.41
- Signal Fold Change AT5G14920 gibberellin-regulated protein: 0.33
- Signal Fold Change AT5G15290, unknown biological function: 2.99
- Signal Fold Change AT5G15530 biotin carboxyl carrier protein 2: 0.43
- Signal Fold Change AT5G15830 bZIP transcription factor protein: 4.29
- Signal Fold Change AT5G18470, unknown biological function: 0.24
- Signal Fold Change AT5G18670 beta-amylase: 0.63
- Signal Fold Change AT5G18860, unknown biological function: 3.13
- Signal Fold Change AT5G18970, unknown biological function: 3.98
- Signal Fold Change AT5G19890 peroxidase: 0.03
- Signal Fold Change AT5G19930, unknown biological function: 1.84
- Signal Fold Change AT5G20410 monogalactosyldiacylglycerol synthase: 2.86
- Signal Fold Change AT5G22310, unknown biological function: 0.46
- Signal Fold Change AT5G22860 serine carboxypeptidase S28 protein: 3.07
- Signal Fold Change AT5G23750, unknown biological function: 4.93
- Signal Fold Change AT5G24870, unknown biological function: 2.71
- Signal Fold Change AT5G25140 cytochrome P450: 6.66
- Signal Fold Change AT5G25160 zinc finger (C2H2 type) protein: 2.70
- Signal Fold Change AT5G25190 ethylene-responsive element-binding protein: 0.25
- Signal Fold Change AT5G34940, unknown biological function: 0.44
- Signal Fold Change AT5G37300, unknown biological function: 5.67
- Signal Fold Change AT5G38930, unknown biological function: 0.16
- Signal Fold Change AT5G39860 bHLH protein: 4.44
- Signal Fold Change AT5G41900 hydrolase: 4.02
- Signal Fold Change AT5G44410, unknown biological function: 2.89
- Signal Fold Change AT5G44580, unknown biological function: 0.14
- Signal Fold Change AT5G46890 lipid transfer protein: 3.10
- Signal Fold Change AT5G47240, unknown biological function: 8.92
- Signal Fold Change AT5G47330 palmitoyl protein thioesterase protein: 2.34
- Signal Fold Change AT5G47450 major intrinsic protein: 2.81
- Signal Fold Change AT5G47950, unknown biological function: 4.37
- Signal Fold Change AT5G48490 lipid transfer protein: 3.78
- Signal Fold Change AT5G48900, unknown biological function: 0.58
- Signal Fold Change AT5G49900, unknown biological function: 3.82
- Signal Fold Change AT5G50720 ABA-responsive protein (HVA22e): 2.97
- Signal Fold Change AT5G52120 SKP1 interacting partner 3 protein: 11.57
- Signal Fold Change AT5G53190, unknown biological function: 7.32
- Signal Fold Change AT5G53830, unknown biological function: 0.30
- Signal Fold Change AT5G56320, cell wall organization and biogenesis, expansin (EXP14): 4.57
- Signal Fold Change AT5G58660, unknown biological function: 0.40
- Signal Fold Change AT5G59540 oxidoreductase: 0.34
- Signal Fold Change AT5G63450 cytochrome P450: 16.44
- Signal Fold Change AT5G63650 serine/threonine protein kinase: 0.59
- Signal Fold Change AT5G65970 seven transmembrane MLO protein: 2.84
- Signal Fold Change AT5G66310, microtubule-based movement, kinesin motor protein: 0.48
- Signal Fold Change AT5G66400 dehydrin (RAB18): 1.10
- Signal Fold Change AT5G66440, unknown biological function: 0.32
- Signal Fold Change AT5G66460 (1-4)-beta-mannan endohydrolase: 0.52
- Signal Fold Change AT5G66780, unknown biological function: 1.48

Source: patent publication US8481459B2, “Chemical inhibitors of ethylene biosynthesis” (Academia Sinica, priority 2010, dated 2013)
